Read-outs that look alike come from different tables or passages of the source. Non-standard residues stand in square brackets, D forms with d. Residues, ends and D or L forms follow the SMILES beside them. *: point of attachment. Sta = CC(C)C[C@H](N)[C@@H](O)CC(=O)O; Isovaleryl = CC(C)CC(=O)*; Nle = CCCC[C@H](N)C(=O)O; Cbz = O=C(OCc1ccccc1)*

Data set [1] has as its system artificially truncated form of Spitz. The data set is described as follows: Control: expression or secretion of an artificially truncated (secreted) form of Spitz. In kind it is cell-based, Drosophila. To be noted: this concentration (10-100:M). The procedure: Cells were transfected as standard with 1 ng of Rhomboid-1 DNA (in 1 μg total DNA) and were then incubated in serum-free medium for 24 hours. The medium was then replaced with 0.5 ml serum free medium containing protease inhibitor at the indicated concentration and incubated for 1 hour. After 1 hour, the medium was collected, cleared by centrifugation, dialysed overnight against several changes of water and lyophilised. The resulting pellets were re-suspended in SDS sample buffer, boiled and analysed by Western blot. Transfections with a secreted form of Spitz were used in parallel to control for non-specific toxicity of the protease inhibitors or general inhibition of the secretory pathway.

The target in another data set is T1, Rhomboid-1 (Drosophila melanogaster, UniProt P20350).
T1 construct: When co-expressed with Star and full-length Rhomboid-1 in the COS cell Spitz cleavage assay; expressed in transfected cells; host or cells: COS cells, pcDNA3.1 constructs, transient transfection
T1 sequence (P20350 1-355): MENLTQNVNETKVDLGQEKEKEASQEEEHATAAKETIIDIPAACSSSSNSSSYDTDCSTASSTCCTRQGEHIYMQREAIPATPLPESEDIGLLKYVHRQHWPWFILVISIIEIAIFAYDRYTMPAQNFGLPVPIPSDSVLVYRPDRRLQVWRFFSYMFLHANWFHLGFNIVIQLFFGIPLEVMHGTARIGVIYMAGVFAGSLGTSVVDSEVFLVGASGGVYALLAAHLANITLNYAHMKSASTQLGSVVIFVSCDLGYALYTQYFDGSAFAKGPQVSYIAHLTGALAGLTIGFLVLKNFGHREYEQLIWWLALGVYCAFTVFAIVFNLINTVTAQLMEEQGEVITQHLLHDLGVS
Kind of data set: Rhomboid-1 and Star dependent cleavage of GFP-Spitz in transfected COS cells (western blot of medium). It counts as cell-based. The procedure: COS cells were grown in DMEM medium (supplemented with 10% foetal calf serum), and transfected with FuGENE 6 Transfection Reagent (Roche). Cells were transfected in 35 mm culture wells with 25-250 ng of each construct and empty plasmid to bring the total DNA to 1 μg per well. 24-30 hours post-transfection the medium was replaced with serum-free medium; this was harvested 24 hours later and cells were lysed in SDS-sample buffer. GFP was detected in conditioned medium and cell lysates by western blot with a rabbit polyclonal antibody. For some experiments the serum-free medium was supplemented with the metalloprotease inhibitor batimastat (British Biotech) or ilomostat (Calbiochem). Cells were transfected as standard with 1 ng of Rhomboid-1 DNA (in 1 μg total DNA) and were then incubated in serum-free medium for 24 hours. The medium was then replaced with 0.5 ml serum free medium containing protease inhibitor at the indicated concentration and incubated for 1 hour. After 1 hour, the medium was collected, cleared by centrifugation, dialysed overnight against several changes of water and lyophilised. The resulting pellets were re-suspended in SDS sample buffer, boiled and analysed by Western blot. Transfections with a secreted form of Spitz were used in parallel to control for non-specific toxicity of the protease inhibitors or general inhibition of the secretory pathway. The proteolytic cleavage assay was recapitulated in a mammalian tissue culture system. Spitz was tagged with GFP near its N-terminus and transiently expressed in COS cells, in the presence or absence of Star and/or Rhomboid-1. The accumulation of the soluble extracellular fragment of GFP-Spitz in the cell medium was then measured by western blot.
For orientation: In western blotting, separated proteins are transferred to a membrane and probed.

For data set [2], the system named is uncleavable Spitz-TGFα chimera with Spitz residue G143 restored in the TGFα TMD.
Data set [3] relates to uncleavable Spitz-TGFα chimera (Spitz with residues 140-160 replaced by the equivalent residues from TGFα, with the TGFα C-terminus).
In data set [4] the target is uncleavable Spitz-TGFα chimera with Spitz residue G143 restored in the TGFα TMD. The source holds these as a separate data set.
The target of data set [5] is uncleavable Spitz-TGFα chimera (Spitz with residues 140-160 replaced by the equivalent residues from TGFα, with the TGFα C-terminus). This is another data set of the same source.

Turning to `O=c1oc(Cl)c(Cl)c2ccccc12` [3,4-DCI], the “expression or secretion of an artificially truncated form of Spitz (extracellular domain)” value in data set [1] is on record as “did not effect”. Besides, the “Rhomboid activity (summary statement)” value at Rhomboid-1 was “inhibit”. Further, the “inhibition of Rhomboid activity, standard cleavage assay with panel of inhibitors” value (from here on “inhibition of Rhomboid activity”) at Rhomboid-1 (10-100:M) is reported as “strongly inhibited”.
On to `CCOC(=O)[C@H]1O[C@@H]1C(=O)N[C@@H](CC(C)C)C(=O)NCCC(C)C` [E64d], for which the “inhibition of Rhomboid activity” value on Rhomboid-1 (50:M) is given as “No inhibition”.
Take `O=C(O)/C(S)=C/c1ccc(I)cc1` [PD150606]: the “inhibition of Rhomboid activity” value against Rhomboid-1 (concentration not given) was “No inhibition”.
`Cc1ccc(S(=O)(=O)N[C@@H](Cc2ccccc2)C(=O)CCl)cc1` [TPCK]: the “expression or secretion of an artificially truncated form of Spitz (extracellular domain)” value in data set [1] is on record as “did not effect”. In addition, the “Rhomboid activity (summary statement)” value at Rhomboid-1 was “inhibit”. In addition, the “inhibition of Rhomboid activity” value against Rhomboid-1 (10-100:M) was “strongly inhibited”.
Regarding `CCCC[C@@H](C=O)NC(=O)[C@H](CC(C)C)NC(=O)[C@H](CC(C)C)NC(=O)OCc1ccccc1` [gamma secretase inhibitor I] (Cbz-Leu-Leu-[Nle]-aldehyde), on Rhomboid-1 (25:M), the “inhibition of Rhomboid activity” value was “No inhibition”.
Turning to `CNC(=O)[C@H](Cc1c[nH]c2ccccc12)NC(=O)[C@@H](CC(=O)NO)CC(C)C` [ilomostat], on Rhomboid-1 (concentration not given), the “Rhomboid-1-dependent cleavage of Spitz” value is recorded as “insensitive” and the “inhibition of Rhomboid activity” value is recorded as “No inhibition”.
In the case of `CC(=O)N[C@@H](CC(C)C)C(=O)N[C@@H](CC(C)C)C(=O)N[C@H](C=O)CCCNC(=N)N` [leupeptin], at Rhomboid-1 (100:M), the “inhibition of Rhomboid activity” value is reported as “No inhibition”.
Consider `CC(C)CC(=O)N[C@H](C(=O)N[C@H](C(=O)N[C@@H](CC(C)C)[C@@H](O)CC(=O)N[C@@H](C)C(=O)N[C@@H](CC(C)C)[C@@H](O)CC(=O)O)C(C)C)C(C)C` [pepstatin A] (Isovaleryl-VV[Sta]A[Sta]-OH), for which, on Rhomboid-1 (50:M), the “inhibition of Rhomboid activity” value is recorded as “No inhibition”.
With Drosophila Rhomboid-2, in data set [2], the “protease activity against the TGFα TMD with a restored G143” value was “did cleave when only G143 was added back”. Further, in data set [3], the “protease activity against the uncleavable form of Spitz” value is “they could not cleave the TGFα TMD”.
For Drosophila Rhomboid-3, in that order: “did cleave when only G143 was added back” and “they could not cleave the TGFα TMD”.

B1: Human RHBDL2 (protein)
chain: MNLNMGREMKEELEEEEKMREDGGGKDRAKSKKVHRIVSKWMLPEKSRGTYLERANCFPPPVFIISISLAELAVFIYYAVWKPQKQWITLDTGILESPFIYSPEKREEAWRFISYMLVHAGVQHILGNLCMQLVLGIPLEMVHKGLRVGLVYLAGVIAGSLASSIFDPLRYLVGASGGVYALMGGYFMNVLVNFQEMIPAFGIFRLLIIILIIVLDMGFALYRRFFVPEDGSPVSFAAHIAGGFAGMSIGYTVFSCFDKALLKDPRFWIAIAAYLACVLFAVFFNIFLSPAN
In the case of B1, in data set [4], the “protease activity against the TGFα TMD with a restored G143” value is given as “did cleave when only G143 was added back”. Also, in data set [5], the “protease activity against the uncleavable form of Spitz” value is given as “they could not cleave the TGFα TMD”.
